Measured values reported in patent US20210228523A1, “MODULATORS OF SESTRIN-GATOR2 INTERACTION AND USES THEREOF” (Navitor Pharmaceuticals, Inc., priority 2017, published 2021).

Columns and labels:
[1] = test system: Male Sprague Dawley rats; test: Sucrose Preference Test (SPT) in non-stressed and chronic unpredictable stress rats; type: in vivo, rat; details: Example E, NV-5138 160 mg/kg oral single dose, 24 hrs after dosing
Protocol: Behavioral Analysis Using the Sucrose Preference Test (SPT): Rats were habituated to a palatable sucrose 1% sucrose solution for 48 hrs to avoid neophobia. Rats were treated with NV-5138 or Veh at the end of day 0 and the SPT was performed 24 hrs post-administration on day 1. For the SPT, rats were deprived of water for 6 hrs and exposed for 60 min to two bottles with equal volumes of 1% sucrose or water. The ratio of the volume of sucrose water consumed to total water consumed during the 1 hr test was defined as sucrose preference (e.g., a ratio of 1 would indicate the rat consumed only 1% sucrose, while a ratio of 0.5 would indicate that the rat drank equal amounts of 1% sucrose and water).
Chronic Unpredictable Stress (CUS) Conditions: Rats were exposed to a variable sequence of 12 unpredictable stressors, preventing habituation as described (Li, N. et al., Biol Psychiatry 69(8): 754-61 (2011)). […]
Study Design: Fifty-six (56) male rats weighing between 175 and 200 g were randomized into 4 study groups (n=14/group), following a 5-day acclimation period. […] Crude synaptosomes were prepared from the PFC and the synaptic proteins, GluR1 and PSD95 were quantitated by WB. […]

[2] = test system: layer V pyramidal neurons in PFC; test: Dendritic spine density and morphology analysis (two-photon imaging); type: in vivo, rat; details: Example H; NV-5138 160 mg/kg oral single dose; 24 hr
Protocol: Study Design: Sixteen (16) male rats weighing between 175 and 200 g were randomized into 2 study groups (n=8), following a 5-day acclimation period. On study day 0, rats received a single dose of either NV vehicle (Veh, 0.5% methylcellulose/0.1% Tween-80) or NV-5138 (160 mg/kg), by oral gavage. On day 1, 24 hrs after dosing, rats were sacrificed, and brain slices were prepared and subjected to whole cell patch clamp recording of layer V pyramidal neurons in PFC.
Spine Density Analysis. Labeled neurons within layer V of anterior cingulate (Cg1) and prelimbic mPFC (Cg3) were imaged with a two-photon Ti:sapphire laser scanning system for analysis of spine density and morphology (810 nanometers; Mai Tai, Spectra Physics, Mountain View, Calif.) coupled to direct detection Radiance 2000 BioRad laser scanner (Zeiss Micromaging, Thornwood, N.Y.) mounted on a Olympus BX50WI microscope, using a 60× (0.9 numerical aperture) water-immersion objective. This includes the total number of spines on proximal and distal tufts of layer V neurons, as well as the spine head diameter, and indication of spine maturation. The length of apical tuft branch segments is determined within the 3D matrix of each Z-stack by using Neurolucida 10.2 (MicroBrightField). Spine density and spine head diameter analysis are done with the Autospine module of Neurolucida Explorer (version 10.2) on the raw image stacks (2-5 optical sections, 1 μm apart). Spine density and segmentation (beading) were sampled in three zones: tips of tuft branches as they approach the pial membrane, intermediate dendrites approximately midway between the pial membrane and bifurcation of apical trunk, and proximal tuft dendrites just distal to the bifurcation. Results were expressed in terms of total dendritic length, spine density, and segmentation density. Results were expressed in terms of spine density per 10 μm.

With `CC(C)(C[C@H](N)C(=O)O)C(F)F` [NV-5138] the “SPT, mean ratio of 1% sucrose to water consumption” value ([1]; CUS rats (Group 4)) was 0.79, the “SPT, mean ratio of 1% sucrose to water consumption” value ([1]; non-stressed (NS) rats) was 0.76 and the “mushroom spine subtype density” value [2] was “specific increase”. For the same molecule, the “overall spine density in layer V pyramidal neuron dendrites” value [2] was “significant increase” and the “thin spine subtype density” value [2] was “specific increase”.
